Measurements published in patent publication US8044206B2, “Nitrogen—containing heterocyclic derivatives having 2,6-disubstituted styryl” (Astellas Pharma Inc., priority 2003, dated 2011).
Where a name gives a salt, the structure may show the parent alone.

Experiments:
[1] = test system: mice with streptozotocin (STZ)-induced diabetic neuropathy; assay: Analgesic action in mice with streptozotocin (STZ)-induced diabetic neuropathy, tail pinch test; type: in vivo; conditions: male ICR mice, Day 15 after STZ, oral 30 mg/kg, 45 minutes prior to measurement, latency after minus before administration
Experimental: Representative compounds of Compound (I) of the present invention were assessed for the analgesic action in mice with streptozotocin (STZ)-induced diabetic neuropathy to confirm the effect on neuropathic pain. The assessment was performed by the method of Kamei et al. (Pharmacology Biochemistry & Behavior 39, 541-544, 1991) with some modifications.
Male ICR mice of 4 weeks old were intraperitoneally injected with 200 mg/kg weight of STZ to prepare mice with diabetic neuropathic pain. The analgesic action was assessed by the tail pinch test. […] On Day 14 following the STZ injection, a pretest was carried out to determine the response latency before the administration of a test compound. Only the animals showing not longer than 3 seconds of the response latency in the pretest were used for the test compound assessment on the following day (Day 15 after STZ injection).
In the test compound assessment, the response latency after the administration of a test compound was measured. The test compound was orally administered at a dose of 30 mg/kg, 45 minutes prior to the response latency measurement
The analgesic action of a test compound is expressed as prolongation of latency (in seconds) calculated by the formula: (response latency after administration of a test compound)−(response latency before administration of a test compound).

[2] = test system: sodium channel; assay: [14C] guanidine uptake induced by veratridine in rat cerebral cortex primary neurons (sodium channel inhibitory action); type: cell-based; conditions: [14C] guanidine uptake induced by 100 μM veratridine, specific uptake = portion inhibited by 1 mM mexiletine, read-out: Na Channel Inhibition IC50
Experimental: The [^14C] guanidine uptake experiment was performed by the method of Bonisch et al. (British Journal of Pharmacology 108, 436-442, 1993) with some modifications. The [^14C] guanidine was used as a sodium tracer, and the inhibitory activity on uptake of [^14C] guanidine induced by veratridine as a sodium channel activator into rat cerebral cortex primary neurons was measured.
Pregnant rats (Wistar, female, 19 days of gestation) were anesthetized with ether. The animals were bled to death by giving incision through the carotid artery. The fetuses were taken out of the pregnant rats and after ethanol sterilization, the cerebral cortex was removed from the fetuses. The cerebral cortex was digested with papain and dispersed in culture medium, followed by plating on a poly-L-lysine-coated 96-well white plate at a density of 2.5×10^5 cells/well. Incubation was performed in a CO2 incubator (37° C., 5% CO2) for 2 days.
After each well was washed once with an assay buffer (135 mM choline Cl, 5 mM KCl, 1 mM MgSO4, 5.5 mM glucose, 1 mg/mL BSA, 10 mM Hepes-Tris, pH 7.4), a fresh assay buffer was added to the well, followed by incubation at 25° C. for 10 minutes. Then, a reaction solution (a test compound, [^14C] guanidine and 100 μM, veratridine) was replaced for the buffer, followed by incubation at 25° C. for 15 minutes. The reaction was terminated by washing 3 times with a cold wash buffer (135 mM NaCl, 5 mM KCl, 1 mM MgSO4, 10 mM Hepes-Tris, pH 7.4). To each well, 17 μl of 0.1N NaOH was added. After agitation, 100 μl of scintillator was added to the well and further agitation was continued. The radioactivity was quantified by a liquid scintillation counter. In each experiment, the sodium channel-specific uptake of the whole uptake was designated as portion that was inhibited by 1 mM mexiletine. The action of the test compound on sodium channel is expressed as 50% inhibition concentration (IC50) based on the specific uptake.

[3] = test system: L5/L6 spinal nerve ligation rats; assay: animal or person; conditions: Rattus norvegicus, po, read-out: anti-allodynia ED50
Experimental: The the assessment was performed by the method of Kim and Chung (Pain 50, 355-363, 1992) with some modifications.
Under pentobarbital anesthesia, male SD rats of 5 or 6 weeks old were given surgery to ligate both the left L5 and L6 lumbar nerves tightly with silk threads. For the assessment of analgesic action, the von Frey hair test was adopted. That is, the animal's hindpaw was picked with hair and the lowest strength of hair for limb withdrawal response was designated as a response threshold (log gram) to mechanical stimulation. […] On the day before the assessment of a test compound, the response threshold before administration of a test compound was measured. The animals were divided into 4 to 5 groups so that differences in the mean values of response thresholds before administration among the groups and variation within groups become small. In the assessment of a test compound, the response threshold after administration of the test compound was measured. The test compound was orally given 30 minutes before measurement of the response threshold. The anti-allodynia action potency of a test compound is expressed as ED50. In the calculation of the ED50, the thresholds of ipsilateral and contralateral paws in the solvent group were designated as 0% and 100%, respectively.

Structure (SMILES)	Anti-STZ-induced pain after oral administration: Latency prolongation [1]	IC50 [2] [µM]	ED50 [3] [mg/kg]
Cc1cccc(C)c1/C=C/C12CCN(CC1)CC2 [Example 24, 4-[(E)-2-(2,6-dimethylphenyl)vinyl]quinuclidine]	2.6 s	10	–
Cc1cccc(Cl)c1/C=C/C1CCNCC1 [Example 37, 4-[(E)-2-(2-chloro-6-methylphenyl)vinyl]piperidine hydrochloride]	1.9 s	10	–
Cc1cccc(C)c1/C=C\C1CCNCC1 [Example 38, 4-[(Z)-2-(2,6-dimethylphenyl)vinyl]piperidine]	3.1 s	6	–
Cc1cccc(C)c1/C=C/C1CCNCC1 [Example 39, 4-[(E)-2-(2,6-dimethylphenyl)vinyl]piperidine monohydrochloride]	2.9 s	16	–
Cc1cc(N(C)C)cc(C)c1/C=C/C1CCNCC1 [Example 53, N,N,3,5-tetramethyl-4-[(E)-2-piperidin-4-ylvinyl]aniline]	4.2 s	19	–
Cc1cccc(C)c1/C=C/C1CCCCN1 (stereo not shown) [Example 62, 2-[(E)-2-(2,6-dimethylphenyl)vinyl]piperidine monohydrochloride]	2.3 s	9.2	–
Cc1cccc(C)c1/C=C/C1CCCNCC1 (stereo not shown) [Example 63, 4-[(E)-2-(2,6-dimethylphenyl)vinyl]azepane]	3.3 s	10	–
Cc1cccc(C)c1/C=C/CC1CCNCC1 [Example 65, 4-[(2E)-3-(2,6-dimethylphenyl)prop-2-en-1-yl]piperidine]	2.3 s	11	–
Cc1cccc(C)c1/C=C/C1CCCN(C)C1 (stereo not shown) [Example 71, 3-[(E)-2-(2,6-dimethylphenyl)vinyl]-1-methylpiperidine]	2.3 s	7.7	–
Cc1cccc(C)c1/C=C/C1CCN(CCN(C)C)CC1 [Example 74, (2-{4-[(E)-2-(2,6-dimethylphenyl)vinyl]piperidin-1-yl}ethyl)dimethylamine]	1.8 s	7.2	–
Cc1cccc(C)c1/C=C/C1CCN(C(=O)CN2CCNCC2)CC1 [Example 204, 1-(2-{4-[(E)-2-(2,6-dimethylphenyl)vinyl]piperidin-1-yl}-2-oxoethyl)piperazine]	2.4 s	–	–
Cc1cccc(C)c1/C=C/C1CCN(C(=O)CN2C[C@H]3C[C@@H]2CN3)CC1 [Example 205, (1R,4R)-2-(2-{4-[(E)-2-(2,6-dimethylphenyl)vinyl]piperidin-1-yl}-2-oxoethyl)-2,5-diazabicyclo[2.2.1]heptane]	1.6 s	–	–
Cc1cccc(C)c1OCC(C)N (stereo not shown) [Mexiletine, reference compound]	about 3 seconds	70	~70
